Data from US20100028463A1, “EXTRACT OF STEWARTIA KOREANA AND USE THEREOF” (priority 2006, published 2010).

Tested on: human umbilical vein endothelial cells (HUVEC)
Assay: Migration of endothelial cells, Boyden chamber method
Type: cell-based
Settings: positive control, 10 ng/mL VEGF, cultured 2 hours
Description: 0.1% gelatin was applied on a polycarbonate membrane (Costar, USA) for 10 minutes and dried at room temperature for 1 hour. 30 μL of human umbilical vein endothelial cells (HUVEC, 1×10^6 cells/mL) was put in a lower chamber of a trans-wells (Costar, USA), covered with the dried polycarbonate membrane, and an upper chamber was overlaid, followed by fixing by a screw. The chamber was turned over so that the cells could be attached to the membrane and cultured at 37° C. in a CO2 incubator for 2 hours.
50 μL of Stewartia koreana extract according to the present invention was added to the upper chamber and cultured for 2 hours. The polycarbonate membrane was died using the diff-quick staining agent and the migrated endothelial cells were counted through the polycarbonate membrane using a microscope (Table 1). Each dry extract powder of Stewartia koreana otained in Example were dissolved in water in an amount of 100 μg/mL. The negative control was water and the positive control was 10 ng/mL of VEGF (vascular endothelialgrowth factor, Sigma).
The polycarbonate membrane was stained with diff-quick staining agent and the number of the endothelial cells which had migrated through the polycarbonate membrane was then counted using a microscope (FIG. 1). […] The dry powder of the ethanol extract of Stewartia koreana and compound Madecassol™ were added to water in an amount of 12.5 to 100 μg/mL.

Substance: VEGF
- Migrated endothelial cells: 75 ± 0.41
